From patent US20230365561A1, “BETA-LACTAMASE INHIBITORS AND THEIR PREPARATION” (NINGXIA ACADEMY OF AGRICUL TURE AND FORESTRY SCIENCES, priority 2020, published 2023)
Where a name gives a salt, the structure may show the parent alone.

Experiments:
Type in all cases: cell-based
[1] = system: E. cloacae clinical isolate (strain 5); experiment: MIC by broth microdilution (alone and in combination with meropenam), strain 5; details: Enterobacter cloacae, compound alone, read-out: MIC, antibacterial activity of example alone
Method in brief: (§1)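 CLSI broth microdilution; CAMHB II; ~5x10^5 CFU/mL; 37° C, 18-24 h; DMSO <0.5% final. MER 0.125-64 mg/L two-fold; compound fixed at 4 µg/mL in combination. MIC read visually as lowest concentration with no visible growth.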

[2] = system: P. aeruginosa clinical isolate (strain 9); experiment: MIC by broth microdilution (alone and in combination with meropenam), strain 9; details: Pseudomonas aeruginosa, compound alone, read-out: MIC, antibacterial activity of example alone
Method in brief: as §1

[3] = system: A. baumannii clinical isolate (strain 7); experiment: MIC by broth microdilution (alone and in combination with meropenam), strain 7; details: Acinetobacter baumannii, compound alone, read-out: MIC, antibacterial activity of example alone
Method in brief: as §1

[4] = system: P. aeruginosa 9027 (strain 10); experiment: MIC by broth microdilution (alone and in combination with meropenam), strain 10; details: Pseudomonas aeruginosa, compound alone, read-out: MIC, antibacterial activity of example alone
Method in brief: as §1

[5] = system: K. pneumoniae clinical isolate (strain 3); experiment: MIC by broth microdilution (alone and in combination with meropenam), strain 3; details: Klebsiella pneumoniae, compound alone, read-out: MIC, antibacterial activity of example alone
Method in brief: as §1

[6] = system: E. coli clinical isolate (strain 1); experiment: MIC by broth microdilution (alone and in combination with meropenam), strain 1; details: Escherichia coli, compound alone, read-out: MIC, antibacterial activity of example alone
Method in brief: as §1

E. coli 8739 (strain 2) = experiment: MIC by broth microdilution (alone and in combination with meropenam), strain 2; details: Escherichia coli, compound alone, read-out: MIC, antibacterial activity of example alone
Method in brief: as §1

[7] = system: A. baumannii 19606 (strain 8); experiment: MIC by broth microdilution (alone and in combination with meropenam), strain 8; details: Acinetobacter baumannii, compound alone, read-out: MIC, antibacterial activity of example alone
Method in brief: as §1

[8] = system: E. cloacae 700323 (strain 6); experiment: MIC by broth microdilution (alone and in combination with meropenam), strain 6; details: Enterobacter cloacae, compound alone, read-out: MIC, antibacterial activity of example alone
Method in brief: as §1

[9] = system: K. pneumoniae 700603 (strain 4); experiment: MIC by broth microdilution (alone and in combination with meropenam), strain 4; details: Klebsiella pneumoniae, compound alone, read-out: MIC, antibacterial activity of example alone
Method in brief: as §1

Measured: MIC

N=C(NC(=O)CN1CCCCC1)[C@@H]1CC[C@@H]2CN1C(=O)N2OS(=O)(=O)[O-].[Na+] [Ex.35, Sodium (2S,5R)-7-oxo-2-(N-(2-(piperidin-1-yl)acetyl)carbamimidoyl)-1,6-diazabicyclo[3.2.1]octan-6-yl Sulfate]
> 64 µg/mL: all assays above

N=C(NC(=O)c1cncnc1)[C@@H]1CC[C@@H]2CN1C(=O)N2OS(=O)(=O)O [Ex.10, Sodium (2S,5R)-7-oxo-2-(N-(pyrimidine-5-carbonyl)carbamimidoyl)-1,6-diazabicyclo[3.2.1]octan-6-yl Sulfate]
> 64 µg/mL: all assays above

N=C(NC(=O)c1cccnc1)[C@@H]1CC[C@@H]2CN1C(=O)N2OS(=O)(=O)O [Ex.5, (2S,5R)-2-(N-nicotinoylcarbamimidoyl)-7-oxo-1,6-diazabicyclo[3.2.1]octan-6-yl Hydrogen Sulfate]
> 64 µg/mL: all assays above

CC(=O)N1CCC(C(=O)NC(=N)[C@@H]2CC[C@@H]3CN2C(=O)N3OS(=O)(=O)[O-])CC1.[Na+] [Ex.4, Sodium (2S,5R)-2-(N-(1-acetylpiperidine-4-carbonyl)carbamimidoyl)-7-oxo-1,6-diazabicyclo[3.2.1]octan-6-yl Sulfate]
> 64 µg/mL: all assays above

CN1CCN(CC(=O)NC(=N)[C@@H]2CC[C@@H]3CN2C(=O)N3OS(=O)(=O)[O-])CC1.[Na+] [Ex.42, Sodium (2S,5R)-2-(N-(2-(4-methylpiperazin-1-yl)acetyl)carbamimidoyl)-7-oxo-1,6-diazabicyclo[3.2.1]octan-6-yl Sulfate]
> 64 µg/mL: all assays above

N=C(NC(=O)CCN)[C@@H]1CC[C@@H]2CN1C(=O)N2OS(=O)(=O)[O-].[Na+] [Ex.11, Sodium (2S,5R)-2-(N-(3-aminopropanoyl)carbamimidoyl)-7-oxo-1,6-diazabicyclo[3.2.1]octan-6-yl Sulfate]
> 64 µg/mL: all assays above

CC(=O)N1CCC[C@@H](C(=O)NC(=N)[C@@H]2CC[C@@H]3CN2C(=O)N3OS(=O)(=O)[O-])C1.[Na+] [Ex.27, Sodium (2S,5R)-2-(N-((R)-1-acetylpiperidine-3-carbonyl)carbamimidoyl)-7-oxo-1,6-diazabicyclo[3.2.1]octan-6-yl Sulfate]
> 64 µg/mL: all assays above

CC(=O)NC1CCC(C(=O)NC(=N)[C@@H]2CC[C@@H]3CN2C(=O)N3OS(=O)(=O)[O-])CC1.[Na+] (stereo partly drawn) [Ex.40, Sodium (2S,5R)-2-(N-(4-acetamidocyclohexane-1-carbonyl)carbamimidoyl)-7-oxo-1,6-diazabicyclo[3.2.1]octan-6-yl Sulfate]
> 64 µg/mL: all assays above

N=C(NC(=O)CC1CCOCC1)[C@@H]1CC[C@@H]2CN1C(=O)N2OS(=O)(=O)[O-].[Na+] [Ex.38, Sodium (2S,5R)-7-oxo-2-(N-(2-(tetrahydro-2H-pyran-4-yl)acetyl)carbamimidoyl)-1,6-diazabicyclo[3.2.1]octan-6-yl Sulfate]
> 64 µg/mL: all assays above

N=C(NC(=O)c1cscn1)[C@@H]1CC[C@@H]2CN1C(=O)N2OS(=O)(=O)[O-].[Na+] [Ex.16, Sodium (2S,5R)-7-oxo-2-(N-(thiazole-4-carbonyl)carbamimidoyl)-1,6-diazabicyclo[3.2.1]octan-6-yl Sulfate]
> 64 µg/mL: all assays above

CN1CCC(C(=O)NC(=N)[C@@H]2CC[C@@H]3CN2C(=O)N3OS(=O)(=O)[O-])CC1.[Na+] [Ex.41, Sodium (2S,5R)-2-(N-(1-methylpiperidine-4-carbonyl)carbamimidoyl)-7-oxo-1,6-diazabicyclo[3.2.1]octan-6-yl Sulfate]
> 64 µg/mL: all assays above

N=C(NC(=O)c1cccnn1)[C@@H]1CC[C@@H]2CN1C(=O)N2OS(=O)(=O)O [Ex.12, (2S,5R)-7-oxo-2-(N-(pyridazine-3-carbonyl)carbamimidoyl)-1,6-diazabicyclo[3.2.1]octan-6-yl Hydrogen Sulfate]
> 64 µg/mL: all assays above

CC(=O)N1CC[C@H](C(=O)NC(=N)[C@@H]2CC[C@@H]3CN2C(=O)N3OS(=O)(=O)[O-])C1.[Na+] [Ex.30, Sodium (2S,5R)-2-(N-((S)-1-acetylpyrrolidine-3-carbonyl)carbamimidoyl)-7-oxo-1,6-diazabicyclo[3.2.1]octan-6-yl Sulfate]
> 64 µg/mL: all assays above

N=C(NC(=O)CN)[C@@H]1CC[C@@H]2CN1C(=O)N2OS(=O)(=O)[O-].[Na+] [Ex.15, Sodium (2S,5R)-2-(N-glycylcarbamimidoyl)-7-oxo-1,6-diazabicyclo[3.2.1]octan-6-yl Sulfate]
> 64 µg/mL: all assays above
